Measured values as given in patent US20080114007A1 (priority 2006, published 2008).

molecular target: CSF-1R (Homo sapiens, UniProt P07333); assay: Peptide (non-phosphorylated) assay, fluorescence polarization competition immunoassay; type: biochemical; settings: 0.7 nM CSF-1R, 308 μM SYEGNSYTFIDPTQ peptide, 1 mM ATP, 80 min; mean of at least three determinations; read-out: c-fms Peptide IC50
How it was run: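 Human CSF-1R kinase reaction started with ATP and run 80 min at room temperature, then stopped with EDTA. Phosphopeptide detected by fluorescence polarization competition using anti-phosphotyrosine antibody and PTK green tracer after 30 min. Controls used 4% DMSO, with EDTA added before reaction start for positive controls.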

CSF-1R, sequence (P07333 20-972): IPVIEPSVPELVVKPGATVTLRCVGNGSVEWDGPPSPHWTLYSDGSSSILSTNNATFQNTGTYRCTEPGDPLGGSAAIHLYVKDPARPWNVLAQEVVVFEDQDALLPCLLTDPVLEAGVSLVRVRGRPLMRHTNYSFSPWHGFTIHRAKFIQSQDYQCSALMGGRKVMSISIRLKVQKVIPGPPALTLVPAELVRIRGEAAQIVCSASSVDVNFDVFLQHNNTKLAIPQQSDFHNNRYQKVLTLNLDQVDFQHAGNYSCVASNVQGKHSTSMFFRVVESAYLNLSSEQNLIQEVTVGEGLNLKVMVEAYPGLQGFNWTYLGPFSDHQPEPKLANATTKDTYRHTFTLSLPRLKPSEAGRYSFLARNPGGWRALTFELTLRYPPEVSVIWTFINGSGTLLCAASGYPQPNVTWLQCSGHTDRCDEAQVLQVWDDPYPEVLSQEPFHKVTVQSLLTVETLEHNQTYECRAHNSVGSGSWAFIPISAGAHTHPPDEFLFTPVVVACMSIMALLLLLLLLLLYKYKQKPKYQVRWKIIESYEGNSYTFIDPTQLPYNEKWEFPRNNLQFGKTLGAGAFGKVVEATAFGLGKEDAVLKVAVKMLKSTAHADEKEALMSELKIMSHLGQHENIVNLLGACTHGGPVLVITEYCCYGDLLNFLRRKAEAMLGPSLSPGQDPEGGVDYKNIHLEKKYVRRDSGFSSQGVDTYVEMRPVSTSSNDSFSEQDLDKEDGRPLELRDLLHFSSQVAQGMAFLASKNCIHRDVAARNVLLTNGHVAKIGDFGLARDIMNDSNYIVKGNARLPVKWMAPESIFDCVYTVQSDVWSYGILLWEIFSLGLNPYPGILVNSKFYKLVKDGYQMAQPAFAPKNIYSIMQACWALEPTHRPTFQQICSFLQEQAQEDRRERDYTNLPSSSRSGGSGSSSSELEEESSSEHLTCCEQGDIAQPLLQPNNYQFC

IC50 | SMILES
0.64 nM | CONC(=O)c1cn(-c2ccc3c(c2)CCC3)c2nc(Nc3ccc(CCN(CCO)CCO)cc3)ncc2c1=O [Cpd 100, 2-(4-{2-[bis-(2-hydroxy-ethyl)-amino]-ethyl}-phenylamino)-8-indan-5-yl-5-oxo-5,8-dihydro-pyrido[2,3-d]pyrimidine-6-carboxylic acid methoxy-amide]
4.2 nM | CCONC(=O)c1cn(-c2ccc3c(c2)CCC3)c2nc(Nc3ccc(S(=O)(=O)N(C)C)cc3)ncc2c1=O [Cpd 136, 2-(4-dimethylsulfamoyl-phenylamino)-8-indan-5-yl-5-oxo-5,8-dihydro-pyrido[2,3-d]pyrimidine-6-carboxylic acid ethoxy-amide]
1.6 nM | CONC(=O)c1cn(-c2ccc3c(c2)CCC3)c2nc(Nc3ccc(CCN4CCCC4)cc3)ncc2c1=O [Cpd 130, 8-indan-5-yl-5-oxo-2-[4-(2-pyrrolidin-1-yl-ethyl)-phenylamino]-5,8-dihydro-pyrido[2,3-d]pyrimidine-6-carboxylic acid methoxy-amide]
1.4 nM | CONC(=O)c1cn(-c2ccc3c(c2)CCC3)c2nc(Nc3cccc(C(=O)NCCN(C)C)c3)ncc2c1=O [Cpd 199, 2-[3-(2-dimethylamino-ethylcarbamoyl)-phenylamino]-8-indan-5-yl-5-oxo-5,8-dihydro-pyrido[2,3-d]pyrimidine-6-carboxylic acid methoxy-amide]
0.4 nM | CCc1ccc(-n2cc(C(=O)NOC)c(=O)c3cnc(Nc4ccc5c(c4)OCCOCCOCCOCCOCCO5)nc32)cc1 [Cpd 294, 2-(6,7,9,10,12,13,15,16,18,19-decahydro-5,8,11,14,17,20-hexaoxa-benzocyclooctadecen-2-ylamino)-8-(4-ethyl-phenyl)-5-oxo-5,8-dihydro-pyrido[2,3-d]pyrimidine-6-carboxylic acid methoxy-amide]
1.6 nM | CCc1ccc(-n2cc(C(=O)NOC(C)C)c(=O)c3cnc(Nc4ccc(C5CCNCC5)cc4)nc32)cc1 [Cpd 58, 8-(4-ethyl-phenyl)-5-oxo-2-(4-piperidin-4-yl-phenylamino)-5,8-dihydro-pyrido[2,3-d]pyrimidine-6-carboxylic acid isopropoxy-amide]
0.68 nM | CN1CCN(CCc2ccc(Nc3ncc4c(=O)c(C(=O)NCCO)cn(-c5ccc6c(c5)CCC6)c4n3)cc2)CC1 [Cpd 65, 8-indan-5-yl-2-{4-[2-(4-methyl-piperazin-1-yl)-ethyl]-phenylamino}-5-oxo-5,8-dihydro-pyrido[2,3-d]pyrimidine-6-carboxylic acid (2-hydroxy-ethyl)-amide]
2 nM | CONC(=O)c1cn(-c2ccc3c(c2)CCC3)c2nc(Nc3ccc(C4CCN(CCC(=O)O)CC4)cc3)ncc2c1=O [Cpd 84, 3-{4-[4-(8-indan-5-yl-6-methoxycarbamoyl-5-oxo-5,8-dihydro-pyrido[2,3-d]pyrimidin-2-ylamino)-phenyl]-piperidin-1-yl}-propionic acid]
0.63 nM | CONC(=O)c1cn(-c2ccc(C)c(C)c2)c2nc(Nc3ccc(CCN4CCCC4)cc3)ncc2c1=O [Cpd 51, 8-(3,4-dimethyl-phenyl)-5-oxo-2-[4-(2-pyrrolidin-1-yl-ethyl)-phenylamino]-5,8-dihydro-pyrido[2,3-d]pyrimidine-6-carboxylic acid methoxy-amide]
0.87 nM | CCc1ccc(-n2cc(C(=O)NOC)c(=O)c3cnc(Nc4ccc(CCN5CCN(C)C(=O)C5)cc4)nc32)cc1 [Cpd 221, 8-(4-ethyl-phenyl)-2-{4-[2-(4-methyl-3-oxo-piperazin-1-yl)-ethyl]-phenylamino}-5-oxo-5,8-dihydro-pyrido[2,3-d]pyrimidine-6-carboxylic acid methoxy-amide]
0.9 nM | CCc1ccc(-n2cc(C(=O)NOC)c(=O)c3cnc(Nc4ccc(OCCOC)c(OCCOC)c4)nc32)cc1 [Cpd 308, 2-[3,4-bis-(2-methoxy-ethoxy)-phenylamino]-8-(4-ethyl-phenyl)-5-oxo-5,8-dihydro-pyrido[2,3-d]pyrimidine-6-carboxylic acid methoxy-amide]
2.2 nM | CONC(=O)c1cn(-c2ccc3c(c2)CCC3)c2nc(Nc3ccc(C4CCN(CC(=O)O)CC4)cc3)ncc2c1=O [Cpd 85, {4-[4-(8-indan-5-yl-6-methoxycarbamoyl-5-oxo-5,8-dihydro-pyrido[2,3-d]pyrimidin-2-ylamino)-phenyl]-piperidin-1-yl}-acetic acid]
0.2 nM | CCc1ccc(-n2cc(C(=O)NOC)c(=O)c3cnc(Nc4ccc5c(c4)CNCC5)nc32)cc1 [Cpd 282, 8-(4-ethyl-phenyl)-5-oxo-2-(1,2,3,4-tetrahydro-isoquinolin-7-ylamino)-5,8-dihydro-pyrido[2,3-d]pyrimidine-6-carboxylic acid methoxy-amide]
0.64 nM | CONC(=O)c1cn(-c2ccc3c(c2)CCC3)c2nc(Nc3ccc(CCN4CCC(O)CC4)cc3)ncc2c1=O [Cpd 238, 2-{4-[2-(4-hydroxy-piperidin-1-yl)-ethyl]-phenylamino}-8-indan-5-yl-5-oxo-5,8-dihydro-pyrido[2,3-d]pyrimidine-6-carboxylic acid methoxy-amide]
0.4 nM | CCONC(=O)c1cn(-c2ccc(CC)cc2)c2nc(Nc3ccc(C4CCN(CCO)CC4)cc3)ncc2c1=O [Cpd 183, 8-(4-ethyl-phenyl)-2-{4-[1-(2-hydroxy-ethyl)-piperidin-4-yl]-phenylamino}-5-oxo-5,8-dihydro-pyrido[2,3-d]pyrimidine-6-carboxylic acid ethoxy-amide]
5.7 nM | NC(=O)c1cn(-c2ccc3c(c2)CCC3)c2nc(Nc3cccc(N4CCCC4)c3)ncc2c1=O [Cpd 125, 8-indan-5-yl-5-oxo-2-(3-pyrrolidin-1-yl-phenylamino)-5,8-dihydro-pyrido[2,3-d]pyrimidine-6-carboxylic acid amide]
20 nM | CN1CCN(CCc2ccc(Nc3ncc4c(=O)c(C(N)=O)cn(-c5ccc(Cl)cc5)c4n3)cc2)CC1 [Cpd 33, 8-(4-chloro-phenyl)-2-{4-[2-(4-methyl-piperazin-1-yl)-ethyl]-phenylamino}-5-oxo-5,8-dihydro-pyrido[2,3-d]pyrimidine-6-carboxylic acid amide]
2.1 nM | CONC(=O)c1cn(C2CCCCC2)c2nc(Nc3ccc(N4CCCC4)cc3)ncc2c1=O [Cpd 10, 8-cyclohexyl-5-oxo-2-(4-pyrrolidin-1-yl-phenylamino)-5,8-dihydro-pyrido[2,3-d]pyrimidine-6-carboxylic acid methoxy-amide]
1.4 nM | CNS(=O)(=O)CCc1ccc(Nc2ncc3c(=O)c(C(=O)NOC)cn(-c4ccc5c(c4)CCC5)c3n2)cc1 [Cpd 89, 8-indan-5-yl-2-[4-(2-methylsulfamoyl-ethyl)-phenylamino]-5-oxo-5,8-dihydro-pyrido[2,3-d]pyrimidine-6-carboxylic acid methoxy-amide]

SMILES | IC50
CONC(=O)c1cn(-c2ccc3c(c2)CCC3)c2nc(Nc3ccc(CC(=O)N4CCN(C)CC4)cc3)ncc2c1=O [Cpd 152, 8-indan-5-yl-2-{4-[2-(4-methylpiperazin-1-yl)-2-oxo-ethyl]-phenylamino}-5-oxo-5,8-dihydro-pyrido[2,3-d]pyrimidine-6-carboxylic acid methoxy-amide] | 1.5 nM

same assay, conditions: c-fms Peptide IC50, 0.7 nM CSF-1R, 308 μM SYEGNSYTFIDPTQ peptide, 1 mM ATP, 80 min; mean of at least three determinations

IC50 | SMILES
0.3 nM | CCc1ccc(-n2cc(C(=O)NOC)c(=O)c3cnc(Nc4ccc(C5CCN(C)CC5)cc4)nc32)cc1 [Cpd 156, 8-(4-ethyl-phenyl)-2-[4-(1-methyl-piperidin-4-yl)-phenylamino]-5-oxo-5,8-dihydro-pyrido[2,3-d]pyrimidine-6-carboxylic acid methoxy-amide]
